# Experimental data published in patent US12545637B2, “Extrahepatic targeted cationic lipid compound with high efficiency and low toxicity and its composition” (BEIJING YOUCARE KECHUANG PHARMACEUTICAL TECHNOLOGY CO., LTD., priority 2023, dated 2026).
# Assays:
# 293T cells [1] = test: Fluorescent detection of Fluc-mRNA (cell transfection efficiency of LNP formulations); type: cell-based
# 293T cells [2] = test: Cell survival rate assay (CCK-8); type: cell-based
# Procedure, shortened: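 293T cells seeded at 10,000 cells/well, cultured overnight, then exposed 24 h to LNP carrying 1.5 μg Fluc-mRNA (cationic:neutral:structured:PEG-type lipid 49:10:39.5:1.5) or Lipofectamine 3000. Viability read by CCK-8, 1 h incubation, absorbance at 450 nm.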
# female BALB/C mice = test: In vivo imaging in mice of Fluc-mRNA LNP formulations (mRNA expression and duration)
# Procedure, shortened: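 Female BALB/C mice (4-6 weeks, 17-19 g) received LNP carrying […] Fluc-mRNA intramuscularly. At 6h, 24 h, 48h and 7d, fluorescent imaging substrate was given intraperitoneally and after 5 minutes average radiance, as a measure of expressed protein, was imaged on an IVIS Spectrum system.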
# 293T cells [3] = test: Fluorescent detection of Fluc-mRNA (cell transfection efficiency of LNP formulations); type: cell-based; remark: listed apart in the source
compound,measurement,setting,value
"CCCCCCCCC(CCCCCCCC)COC(=O)CCCCCN(CCCO)CCN(CCCO)CCCCCC(=O)OCC(CCCCCCCC)CCCCCCCC [YK-422, di(2-octyldecyl) 6,6′-(ethane-1,2-diyl-bis((3-hydroxypropyl)azanediyl))dihexanoate]",Relative light unit (RLU),"293T cells [1]; LNP with 0.3 μg Fluc-mRNA, 96-well plate, 24 hours",6432971 RLU
same,"cell transfection efficiency, times that of YK-415",293T cells [1]; ratio vs YK-415,21.59
same,"cell transfection efficiency, times that of YK-417",293T cells [1]; ratio vs YK-417,54.85
same,"cell transfection efficiency, times that of YK-418",293T cells [1]; ratio vs YK-418,57.82
same,"cell transfection efficiency, times that of YK-424",293T cells [1]; ratio vs YK-424,2.23
same,"RLU value, times that of compound 21",293T cells [1]; ratio vs compound 21,4.26
same,"RLU value, times that of compound 23",293T cells [1]; ratio vs compound 23,4.59
same,Cell survival rate,"293T cells [2]; LNP with 1.5 μg Fluc-mRNA, 24 hours, CCK-8",70.48%
same,cell survival rate higher than ALC-0315,293T cells [2]; difference vs ALC-0315,23.27%
same,cell survival rate higher than HIMA,293T cells [2]; difference vs HIMA (HHMA),6.21%
same,cell survival rate higher than Lipofectamine 3000,293T cells [2]; difference vs Lipofectamine 3000,48.82%
same,cell survival rate higher than SM-102,293T cells [2]; difference vs SM-102,2.58%
same,cell survival rate higher than YK-404,293T cells [2]; difference vs YK-404,28.36%
same,cell survival rate higher than YK-405,293T cells [2]; difference vs YK-405,28.62%
same,cell survival rate higher than YK-406,293T cells [2]; difference vs YK-406,45.52%
same,cell survival rate higher than YK-408,293T cells [2]; difference vs YK-408,28.17%
same,cell survival rate higher than YK-409,293T cells [2]; difference vs YK-409,24.37%
same,cell survival rate higher than YK-410,293T cells [2]; difference vs YK-410,25.56%
same,cell survival rate higher than YK-411,293T cells [2]; difference vs YK-411,54.15%
same,cell survival rate higher than YK-412,293T cells [2]; difference vs YK-412,16.34%
same,cell survival rate higher than YK-413,293T cells [2]; difference vs YK-413,23.28%
same,cell survival rate higher than YK-414,293T cells [2]; difference vs YK-414,41.73%
same,cell survival rate higher than YK-415,293T cells [2]; difference vs YK-415,9.32%
same,cell survival rate higher than YK-416,293T cells [2]; difference vs YK-416,29.51%
same,cell survival rate higher than YK-417,293T cells [2]; difference vs YK-417,49.14%
same,cell survival rate higher than YK-418,293T cells [2]; difference vs YK-418,49.43%
same,cell survival rate higher than YK-419,293T cells [2]; difference vs YK-419,31.56%
same,cell survival rate higher than YK-420,293T cells [2]; difference vs YK-420,34.89%
same,cell survival rate higher than YK-421,293T cells [2]; difference vs YK-421,34.77%
same,cell survival rate higher than YK-424,293T cells [2]; difference vs YK-424,42.55%
same,cell survival rate higher than compound 21,293T cells [2]; difference vs compound 21,2.64%
same,cell survival rate higher than compound 23,293T cells [2]; difference vs compound 23,1.37%
same,cytotoxicity reduced compared with YK-411,293T cells [2]; rounded summary statement vs YK-411,50%
same,"average radiation intensity, times that of ALC-0315",female BALB/C mice; 6 h,1.58
same,"average radiation intensity, times that of HHMA",female BALB/C mice; 6 h,2.01
same,"average radiation intensity, times that of SM-102",female BALB/C mice; 6 h,1.92
same,"average radiation intensity, times that of compound 21",female BALB/C mice; 6 h,2.21
same,"average radiation intensity, times that of compound 23",female BALB/C mice; 6 h,2.29
same,"expression amount in mice, times that of YK-415",female BALB/C mice; 6 h,11.28
same,"expression amount in mice, times that of YK-417",female BALB/C mice; 6 h,21.98
same,"mRNA expression in mice, times that of YK-411",female BALB/C mice; 6 h,227.25
same,"average radiation intensity, times that of ALC-0315",female BALB/C mice; 24 h,3.73
same,"average radiation intensity, times that of HHMA",female BALB/C mice; 24 h,5.90
same,"average radiation intensity, times that of SM-102",female BALB/C mice; 24 h,5.74
same,"average radiation intensity, times that of compound 21",female BALB/C mice; 24 h,6.38
same,"average radiation intensity, times that of compound 23",female BALB/C mice; 24 h,7.01
same,"expression amount in mice, times that of YK-415",female BALB/C mice; 24 h,10.98
same,"expression amount in mice, times that of YK-417",female BALB/C mice; 24 h,35.43
same,"mRNA expression in mice, times that of YK-411",female BALB/C mice; 24 h,350.21
same,"average radiation intensity, times that of ALC-0315",female BALB/C mice; 48 h,6.76
same,"average radiation intensity, times that of HHMA",female BALB/C mice; 48 h,8.14
same,"average radiation intensity, times that of SM-102",female BALB/C mice; 48 h,8.26
same,"average radiation intensity, times that of compound 21",female BALB/C mice; 48 h,8.60
same,"average radiation intensity, times that of compound 23",female BALB/C mice; 48 h,8.24
same,"expression amount in mice, times that of YK-415",female BALB/C mice; 48 h,17.19
same,"expression amount in mice, times that of YK-417",female BALB/C mice; 48 h,38.52
same,"mRNA expression in mice, times that of YK-411",female BALB/C mice; 48 h,278.33
same,"average radiation intensity, times that of ALC-0315",female BALB/C mice; 7 d,1.35
same,"average radiation intensity, times that of HHMA",female BALB/C mice; 7 d,1.59
same,"average radiation intensity, times that of SM-102",female BALB/C mice; 7 d,1.41
same,"average radiation intensity, times that of compound 21",female BALB/C mice; 7 d,1.49
same,"average radiation intensity, times that of compound 23",female BALB/C mice; 7 d,1.55
same,"expression amount in mice, times that of YK-415",female BALB/C mice; 7 d,2.34
same,"expression amount in mice, times that of YK-417",female BALB/C mice; 7 d,4.15
same,"mRNA expression in mice, times that of YK-411",female BALB/C mice; 7 d,19.74
same,"average radiation intensity, 6 h","female BALB/C mice; Fluc-mRNA LNP intramuscular, 6 h after administration",1329410
same,"average radiation intensity, 24 h","female BALB/C mice; Fluc-mRNA LNP intramuscular, 24 h after administration",708120
same,"average radiation intensity, 48 h","female BALB/C mice; Fluc-mRNA LNP intramuscular, 48 h after administration",271372
same,"average radiation intensity, 7 d","female BALB/C mice; Fluc-mRNA LNP intramuscular, 7 d after administration",9476
same,"RLU value, times that of ALC-0315",293T cells [3]; ratio vs ALC-0315,2.94
same,"RLU value, times that of HHMA",293T cells [3]; ratio vs HHMA,3.09
same,"RLU value, times that of Lipofectamine 3000",293T cells [3]; ratio vs Lipofectamine 3000,5.36
same,"RLU value, times that of YK-009",293T cells [3]; ratio vs YK-009,1.25
same,"RLU value, times that of YK-405",293T cells [3]; ratio vs YK-405,2.01
same,"RLU value, times that of YK-406",293T cells [3]; ratio vs YK-406,82.21
same,"RLU value, times that of YK-408",293T cells [3]; ratio vs YK-408,4.36
same,"RLU value, times that of YK-409",293T cells [3]; ratio vs YK-409,9.60
same,"RLU value, times that of YK-410",293T cells [3]; ratio vs YK-410,15.77
same,"cell transfection efficiency, times that of YK-412",293T cells [3]; ratio vs YK-412,1.91
same,"cell transfection efficiency, times that of YK-413",293T cells [3]; ratio vs YK-413,4.67
same,"cell transfection efficiency, times that of YK-414",293T cells [3]; ratio vs YK-414,14.49
same,"cell transfection efficiency, times that of YK-416",293T cells [3]; ratio vs YK-416,1.62
same,"cell transfection efficiency, times that of YK-419",293T cells [3]; ratio vs YK-419,2.03
same,"cell transfection efficiency, times that of YK-420",293T cells [3]; ratio vs YK-420,1.60
same,"cell transfection efficiency, times that of YK-421",293T cells [3]; ratio vs YK-421,13.79
